Laboratory results published in PMC3740496, “Synthesis and biological activities of the respiratory chain inhibitor aurachin D and new ring versus chain analogues” (Beilstein Journal of Organic Chemistry, 2013).
Values after ≈ are worked out from the molar mass of the structure shown. Each block holds one compound with its values, some of them ahead of it.

Tests used:
[1] = test system: Plasmodium falciparum; set-up: method as in PMID 18922036; details: cited from earlier work
[2] = test system: K562 myelogenous leukemia cells; test: Cytotoxicity, growth inhibition (MTT); assay type: cell-based; details: Homo sapiens, K562, 120 h; 5 days treatment; triplicate, mean ±SD; read-out: IC50: half inhibitory concentration, K562
Experimental: (§1) The cytotoxic activity of aurachin D (4) and analogues 9–11 and 17–19 was evaluated in growth inhibition experiments on mammalian cell lines (Table 2). After 5 days treatment, half inhibitory concentrations (IC50) were determined for human HCT-116 colon carcinoma and human K562 myelogenous leukemia cells. […]
(§2) was further incubated for 1.5 h. The medium was then discarded and 100 µL 2-propanol/10 N HCl (250:1) was added in order to dissolve formazan granules. The absorbance at 570 nm was measured using a microplate reader (EL808, Bio-Tek Instruments Inc.) and cell viability was expressed as a percentage relative to the respective solvent control. […]

[3] = test system: Trypanosoma brucei gambiense strain Feo bloodstream forms; test: Antitrypanosomal assay (resazurin); assay type: cell-based; details: Trypanosoma brucei, GAMBIENSE; 72 h incubation; read-out: IC50 T. brucei gambiense
Experimental: page 10: independent experiments. Chloroquine diphosphate (Sigma–Aldrich) was used as antimalarial drug control. Antitrypanosomal activities: Bloodstream forms of Trypanosoma brucei gambiense strain Feo were cultured in HMI9 medium supplemented with 10% FCS at 37 °C under an atmosphere of 5% CO2. Antitrypanosomal assays were performed as previously described. In all experiments, log-phage cell cultures were harvested by centrifugation at 3,000g and immediately used. Drug assays were based on the conversion of a redox-sensitive dye (resazurin) to a fluorescent product by viable cells. Drug stock solutions were prepared in pure DMSO. […] After a 72 h incubation, resazurin solution was added in each well at the final concentration of 45 µM. Fluorescence was measured at 530 nm excitation and 590 nm emission wavelengths after a further 4 h incubation. Each inhibitor concentration was tested in triplicate. The percentage of inhibition of parasite growth rate was calculated by comparing the fluorescence of parasites maintained in the presence of drug to that in the absence of drug. DMSO was used as a control. IC50s were determined from the dose–response curves with drug concentrations ranging from 100 µM to 50 nM. Pentamidine was used as antitrypanosomal drug control. MIC determination: Indicator strains were obtained from the German Collection of Microorganisms and Cell Cultures (Deutsche Sammlung für Mikroorganismen und Zellkulturen, DSMZ) or were part of our internal strain collection. All microorganisms were handled under standard conditions recommended by the depositor. Overnight S10

[4] = test system: Plasmodium falciparum FcB1 (chloroquine-resistant); test: In vitro antiplasmodial assay ([3H]-hypoxanthine incorporation); assay type: cell-based; details: Plasmodium falciparum, FCB1; triplicate (except compound 24), mean ±SD; read-out: IC50 P. falciparum FcB1
Experimental: In vitro antiplasmodial assays: The chloroquine-resistant strain FcB1/Colombia of Plasmodium falciparum was maintained in vitro on human erythrocytes in RPMI 1640 medium supplemented by 8% (v/v) heat-inactivated human serum, at 37 °C, under an atmosphere of 3% CO2, 6% O2, and 91% N2. In vitro drug susceptibility assays was measured by [3H]-hypoxanthine incorporation as described. Drugs were prepared in DMSO at a 10 mg/mL concentration. Compounds were serially diluted two-fold with 100 µL culture medium in 96-well plates. Asynchronous parasite cultures (100 µL, 1% parasitaemia and 1% final hematocrite) were then added to each well and incubated for 24 h at 37 °C prior to the addition of 0.5 µCi of [3H]- hypoxanthine (GE Healthcare, France, 1 to 5 Ci·mmol/mL) per well. After a further incubation of 24 h, plates were frozen and thawed. Cell lysates were then collected onto glass-fiber filters and counted in a liquid scintillation spectrometer. The growth inhibition for each drug concentration was determined by comparison of the radioactivity incorporated in the treated culture with that in the control culture maintained on the same plate. The concentration causing 50% growth inhibition (IC50) was obtained from the drug concentration–response curve and the results were expressed as the mean values ± standard deviations determined from several […]
independent experiments. Chloroquine diphosphate (Sigma–Aldrich) was used as antimalarial drug control. […]

[5] = test system: HCT-116 human colon carcinoma cells; test: Cytotoxicity, growth inhibition (MTT); assay type: cell-based; details: Homo sapiens, HCT-116, 120 h, read-out: IC50: half inhibitory concentration, HCT-116
Experimental: as §1, §2

[6] = test system: Escherichia coli DH5α (wt); test: MIC determination; assay type: cell-based; details: duplicate, mean ±SD
Experimental: (§3) MIC determination: Indicator strains were obtained from the German Collection of Microorganisms and Cell Cultures (Deutsche Sammlung für Mikroorganismen und Zellkulturen, DSMZ) or were part of our internal strain collection. All microorganisms were handled under standard conditions recommended by the depositor. Overnight […]
(§4) cultures of bacteria were prepared in EBS medium (0.5% casein peptone, 0.5% proteose peptone, 0.1% meat peptone, 0.1% yeast extract; pH 7.0). Yeasts and molds were grown in Myc medium (1% phytone peptone, 1% glucose, 50 mM
(§5) HEPES, pH 7.0). The overnight cultures of microorganisms were diluted to OD600 0.01 (bacteria) or 0.05 (yeasts/molds) in the respective growth medium. Serial dilutions of compounds were prepared as duplicates in sterile 96-well plates. The cell suspension was added and microorganisms were grown overnight on a microplate shaker (900 rpm, 30 °C or 37 °C). Growth inhibition was assessed by measuring the OD600 on a plate reader (POLARstar, BMG Labtech). MIC50 values were determined as averages relative to respective control samples by sigmoidal curve fitting. […]

[7] = test system: Staphylococcus aureus Newman (MSSA); test: MIC determination; assay type: cell-based; details: duplicate, mean ±SD
Experimental: as §3, §4, §5

[8] = test system: Escherichia coli (TolC); test: MIC determination; assay type: cell-based; details: read-out: MIC50 Escherichia coli (TolC)
Experimental: as §3, §4, §5

[9] = test system: Klebsiella pneumoniae DSM30104; test: MIC determination; assay type: cell-based; details: duplicate, mean ±SD
Experimental: as §3, §4, §5

[10] = test system: Micrococcus luteus; test: MIC determination; assay type: cell-based; details: duplicate, mean ±SD
Experimental: as §3, §4, §5

[11] = test system: Staphylococcus aureus DSM11822 (MRSA); test: MIC determination; assay type: cell-based; details: duplicate, mean ±SD
Experimental: as §3, §4, §5

[12] = test system: Bacillus subtilis DSM10; test: MIC determination; assay type: cell-based; details: Bacillus subtilis, DSM10; duplicate, mean ±SD
Experimental: as §3, §4, §5

[13] = test system: Vero cells (nontumor cells); test: Cytotoxicity on Vero cells (MTT); assay type: cell-based; details: 48 h incubation
Experimental: was further incubated for 1.5 h. The medium was then discarded and 100 µL 2-propanol/10 N HCl (250:1) was added in order to dissolve formazan granules. The absorbance at 570 nm was measured using a microplate reader (EL808, Bio-Tek Instruments Inc.) and cell viability was expressed as a percentage relative to the respective solvent control. VERO cells: VERO cells were seeded into 96-well microplates at 10^5 cells per mL in RPMI supplemented with 10% foetal calf serum.
After 24 h, the cells were washed and two microliters of two-fold serial dilutions of each compound (10 mg/mL) was added to 100 μL of medium. Cells were then incubated for 48 h at 37 ° C under a 5% CO2 atmosphere. At the end of incubation, 20 µL of MTT solution (5 mg/mL) was added to each well and further incubated for 4 h at 37 °C to allow the formation of formazan. The crystals of formazan were then dissolved with 100 µL of a freshly prepared solution of sodium dodecyl sulfate (SDS) 10% (15 mL) and HCl 1 N (150 µL). The optical density of each well was measured at 595 nm using a multiwell plate reader. The 50% inhibition concentration was then determined by curve fitting.
MMP assay: Human U-2 OS osteosarcoma cells (HTB-96) were obtained from the American Type Culture Collection (ATCC) and were cultured under the conditions recommended by the depositor. Cells from actively growing cultures were harvested and seeded at 8 × 10^3 cells per well in 96-well imaging plates (BD Falcon). After 1 d cells reached approximately 60% confluency and were treated with aurachin analogues at the assigned concentrations for 16 h. In addition, cells were stimulated with 1 µM FCCP [carbonyl cyanide 4-(trifluoromethoxy)phenylhydrazone] as a positive control 1 h prior to the measurement. For labeling, cells were washed twice with assay buffer ([…], 5.4 mM KCl, 2 mM MgCl2, 10 mM glucose, 2 mM CaCl2, 10 mM HEPES; pH 7.35) and 100 µL of a staining solution (50 nM TMRM,

[14] = test system: Plasmodium; set-up: method as in PMID 15215101; details: read-out: antiplasmodial IC50; cited from earlier work

Structure (SMILES): CC(C)=CCC/C(C)=C/CC/C(C)=C/Cc1c(O)c(C)[n+]([O-])c2ccccc12 [aurachin B]
IC50 Plasmodium falciparum [1]: around 20 ng/mL

Structure (SMILES): CC(C)=CCC/C(C)=C/CC/C(C)=C/Cc1c(C)n(O)c2ccccc2c1=O [aurachin C]
IC50 Plasmodium falciparum [1]: around 20 ng/mL
fold higher antiplasmodial activity compared to aurachin D [1]: approximately 200 fold

Structure (SMILES): CC(C)=CCC/C(C)=C/CC/C(C)=C/Cc1c(C)n2c(=O)[nH]c3cccc(c1=O)c32 [aurachin E]
IC50 Plasmodium falciparum [1]: around 20 ng/mL

Structure (SMILES): CC(C)=CCc1c(C)[nH]c2ccccc2c1=O [compound 10]
IC50 [2]: ~10 µg/mL (≈ 44 µM)
IC50 [3]: 5.8 µg/mL (≈ 25.5 µM)
IC50 [4]: 0.55 ± 0.16 µg/mL (≈ 2.42 µM)
IC50 [5]: > 10 µg/mL
MIC50 [6]: > 64 µg/mL
MIC50 [7]: 9.66 ± 2.39 µg/mL (≈ 42.5 µM)
MIC50 [8]: 6.55 ± 1.36 µg/mL (≈ 28.8 µM)
MIC50 [9]: > 64 µg/mL
MIC50 [10]: 14.3 ± 1.29 µg/mL (≈ 63 µM)
MIC50 [11]: 11.3 ± 1.44 µg/mL (≈ 49.7 µM)
MIC50 [12]: 0.22 ± 0.06 µg/mL (≈ 0.968 µM)

Structure (SMILES): Cc1[nH]c2ccccc2c(=O)c1C [compound 11]
IC50 [2]: > 10 µg/mL
IC50 [3]: > 10 µg/mL
IC50 [4]: 2.3 ± 1.4 µg/mL (≈ 13.3 µM)
IC50 [5]: > 10 µg/mL
MIC50 [6]: > 64 µg/mL
MIC50 [7]: > 64 µg/mL
MIC50 [8]: > 64 µg/mL
MIC50 [9]: > 64 µg/mL
MIC50 [10]: > 64 µg/mL
MIC50 [11]: > 64 µg/mL
MIC50 [12]: 49 ± 6.26 µg/mL (≈ 283 µM)

Structure (SMILES): Cc1c2c(c3ccccc3[n+]1[O-])O[C@H]([C@](C)(O)CCC1OC1(C)C)C2 (stereo partly shown) [compound 22]
IC50 [13]: > 50 µg/mL

IC50 [3]: > 10 µg/mL
IC50 [4]: 7.7 ± 2.5 µg/mL (≈ 48.4 µM)
Structure (SMILES): Cc1cc(=O)c2ccccc2[nH]1 [compound 23, 2-methyl-4(1H)-quinolone, reference compound]

IC50 [3]: 1.7 µg/mL (≈ 7.14 µM)
IC50 [4]: 1.1 µg/mL (≈ 4.62 µM)
Structure (SMILES): Cc1[nH]c2ccccc2c(=O)c1Br [compound 24, 3-bromo-2-methyl-4(1H)-quinolone]

IC50 [3]: > 10 µg/mL
IC50 [4]: 2.7 ± 1.3 µg/mL (≈ 14.3 µM)
Structure (SMILES): Cc1c(C)n(O)c2ccccc2c1=O [compound 25, N-hydroxy-2,3-dimethyl-4(1H)-quinolone]

Structure (SMILES): CC(C)=CCC/C(C)=C/CC/C(C)=C/CO [farnesol]
IC50 [14]: 64 µM
